From patent publication US6140487A (Kabushiki Kaisha Hayashibara Seibutsu Kagaku Kenkyujo, priority 1996, dated 2000) come the findings set out here.

In one data set the target is T1, kojibiose phosphorylase (Thermoanaerobacter brockii, UniProt Q8L163).
T1 sequence (Q8L163 1-775): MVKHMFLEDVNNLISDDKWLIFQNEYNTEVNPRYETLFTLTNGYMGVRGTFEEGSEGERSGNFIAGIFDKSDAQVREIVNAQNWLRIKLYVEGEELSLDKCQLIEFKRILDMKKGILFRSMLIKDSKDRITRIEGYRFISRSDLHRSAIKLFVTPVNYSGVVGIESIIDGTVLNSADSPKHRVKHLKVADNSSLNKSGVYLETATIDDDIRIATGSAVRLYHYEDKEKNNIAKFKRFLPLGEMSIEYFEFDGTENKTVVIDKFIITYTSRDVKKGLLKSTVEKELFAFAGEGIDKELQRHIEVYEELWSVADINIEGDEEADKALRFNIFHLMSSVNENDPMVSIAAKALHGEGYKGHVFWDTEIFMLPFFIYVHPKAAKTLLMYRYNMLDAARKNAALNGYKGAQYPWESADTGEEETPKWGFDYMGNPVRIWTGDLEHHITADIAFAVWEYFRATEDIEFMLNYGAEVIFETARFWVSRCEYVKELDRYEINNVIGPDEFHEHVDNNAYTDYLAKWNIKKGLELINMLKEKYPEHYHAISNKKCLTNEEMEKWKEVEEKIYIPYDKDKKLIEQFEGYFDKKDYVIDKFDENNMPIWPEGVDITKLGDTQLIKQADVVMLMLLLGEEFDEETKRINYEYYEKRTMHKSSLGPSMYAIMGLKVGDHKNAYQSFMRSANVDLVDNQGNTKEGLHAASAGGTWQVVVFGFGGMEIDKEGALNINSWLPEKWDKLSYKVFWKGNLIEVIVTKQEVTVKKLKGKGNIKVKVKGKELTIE
The data set is described as follows: Substrate specificity for saccharide-hydrolyzing reaction by kojibiose phosphorylase (TLC). The note with it: summary of Table 1.
Description: The saccharide concentration of each reaction solution was 2 w/v %. Pre-reaction solutions and post-reaction mixtures were subjected to thin layer chromatography (hereinafter abbreviated as "TLC") using "[sequence] 60 (20×20 cm)", an aluminum plate for TLC commercialized by Merck & Co., Inc., Rahway, USA. Samples were developed once at ambient temperature on the plate using 1-butanol/pyridine/water (=7:3:1 by volume) as a developing solvent system, and the plate was sprayed with 20 v/v % sulfuric acid/methanol solution, and heated at 110° C. for about 10 min for coloration. Comparing spots of the solutions and mixtures detected on the plates, it was checked whether the enzyme acted on the saccharides.
Regarding `OC[C@H]1O[C@H](O[C@H]2C(O)O[C@H](CO)[C@@H](O)[C@@H]2O)[C@H](O)[C@@H](O)[C@@H]1O` (stereo partly drawn) [Kojibiose], the “Action of kojibiose phosphorylase on the saccharide (substrate specificity, in words)” value was “acted on it”.

A further data set has as its target T1, kojibiose phosphorylase. The experiment in a line: Specificity to acceptor in glucosyl-transferred saccharide-forming reaction by kojibiose phosphorylase (TLC). The following applies: summary of Table 2. The class given is biochemical, Thermoanaerobium brockii, ATCC 35047. On the set-up: made in house; host or cells: Thermoanaerobium brockii, ATCC 35047 (natural producer, not recombinant; cell lysate purified by column chromatography). An excerpt: The concentrations of the acceptors and the saccharide donors were adjusted to one w/v %. Similarly as in Experiment 5, the pre-reaction solutions and the post reaction mixtures were subjected to TLC, followed by coloring the plates. […] By macroscopically observing the coloration degree of the newly detected spots, the yield of the transferred saccharides was relatively evaluated.
For `OC[C@H]1O[C@H](O[C@H]2[C@H](O)[C@@H](O)[C@@H](O[C@H]3[C@H](O)[C@@H](O)[C@@H](O[C@H]4[C@H](O)[C@@H](O)C(O)O[C@@H]4CO)O[C@@H]3CO)O[C@@H]2CO)[C@H](O)[C@@H](O)[C@@H]1O` (stereo partly drawn) [Maltotetraose], the “Transfer of glucosyl group from β-D-glucose-1-phosphoric acid to the acceptor (in words)” value (“Transfer of glucosyl group” below) was “effectively transferred glucosyl group”.

As for `OC[C@H]1O[C@H](O[C@H]2[C@H](O)[C@@H](O)[C@H](O)O[C@@H]2CO)[C@H](O)[C@@H](O)[C@@H]1O` [Maltose], the “Transfer of glucosyl group” value is on record as “effectively transferred glucosyl group”.

Consider `OC[C@H]1O[C@@](CO)(O[C@H]2O[C@H](CO)[C@@H](O)[C@H](O)[C@H]2O)[C@@H](O)[C@@H]1O` [Sucrose], for which the “Transfer of glucosyl group” value is recorded as “effectively transferred glucosyl group”.

For `OC[C@H]1OC(O)[C@H](O)[C@@H](O)[C@@H]1O` (stereo partly drawn) [D-Glucose], the “Transfer of glucosyl group” value is on record as “effectively transferred glucosyl group”.

With `OC[C@H]1O[C@H](O[C@H]2C(O)O[C@H](CO)[C@@H](O)[C@@H]2O)[C@H](O)[C@@H](O)[C@@H]1O` (stereo partly drawn) [Kojibiose], the “Transfer of glucosyl group” value was “effectively transferred glucosyl group”.

With `OCC1(O)OC[C@H](O)[C@@H](O)[C@@H]1O` (stereo partly drawn) [L-Sorbose], the “Transfer of glucosyl group” value was “effectively transferred glucosyl group”.

Regarding `OC[C@H]1O[C@H](O[C@H]2O[C@H](CO)[C@@H](O)[C@H](O)[C@H]2O)[C@H](O)[C@@H](O)[C@@H]1O` [Trehalose], the “Transfer of glucosyl group” value is on record as “effectively transferred glucosyl group”.

In the case of `OC[C@H]1O[C@H](O[C@H]2[C@H](O)[C@@H](O)[C@@H](O[C@H]3[C@H](O)[C@@H](O)[C@@H](O[C@H]4[C@H](O)[C@@H](O)[C@@H](O[C@H]5[C@H](O)[C@@H](O)C(O)O[C@@H]5CO)O[C@@H]4CO)O[C@@H]3CO)O[C@@H]2CO)[C@H](O)[C@@H](O)[C@@H]1O` (stereo partly drawn) [Maltopentaose], the “Transfer of glucosyl group” value is recorded as “effectively transferred glucosyl group”.

For the compound `OC[C@H]1O[C@H](O[C@H]2[C@H](O)[C@@H](O)[C@@H](O[C@H]3[C@H](O)[C@@H](O)C(O)O[C@@H]3CO)O[C@@H]2CO)[C@H](O)[C@@H](O)[C@@H]1O` (stereo partly drawn) [Maltotriose], the “Transfer of glucosyl group” value was “effectively transferred glucosyl group”.

The same data set, now with this note: used in place of β-D-glucose-1-phosphoric acid.
`O=P(O)(O)O[C@H]1O[C@H](CO)[C@@H](O)[C@H](O)[C@H]1O` [α-D-glucose-1-phosphoric acid]: the “Formation of glucosyl-transferred saccharide with the substance as saccharide donor” value is on record as “No glucosyl-transferred saccharide was formed”.

The test system of a further data set is 7week-old dd-strain mice. The experiment in a line: Acute toxicity test, oral administration. It counts as in vivo. The following applies: powdery product rich in the saccharide, maximum dose 50 g/kg mouse by weight. As to the method: Acute toxicity test of the powdery products rich in glucosylsorbose, kojitriose, kojibiosylglucoside, and kojibiosylfructoside in Experiments 8-12 were tested in 7week-old dd-strain mice by administering orally. As a result, no mouse died even when administered with their maximum doses, i.e., 50 g/kg mouse by weight.
For `O=C(CO)[C@@H](O)[C@H](O)[C@H](CO)O[C@H]1O[C@H](CO)[C@@H](O)[C@H](O)[C@H]1O` [glucosylsorbose, α-D-glucosyl-(1→5)-L-sorbose], the “Acute toxicity: death of mice” value is reported as “no mouse died”.

Turning to `OC[C@H]1O[C@@](CO)(O[C@H]2O[C@H](CO)[C@@H](O)[C@H](O)[C@H]2O[C@H]2O[C@H](CO)[C@@H](O)[C@H](O)[C@H]2O)[C@@H](O)[C@@H]1O` [kojibiosylfructoside, α-D-glucosyl-(1→2)-α-D-glucosyl-(1→2)-β-D-fructoside], the “Acute toxicity: death of mice” value was “no mouse died”.

Regarding `OC[C@H]1O[C@H](O[C@H]2[C@@H](O[C@H]3C(O)O[C@H](CO)[C@@H](O)[C@@H]3O)O[C@H](CO)[C@@H](O)[C@@H]2O)[C@H](O)[C@@H](O)[C@@H]1O` (stereo partly drawn) [kojitriose, α-D-glucosyl-(1→2)-α-D-glucosyl-(1→2)-D-glucose], the “Acute toxicity: death of mice” value was “no mouse died”.

On to `OC[C@H]1O[C@H](O[C@H]2O[C@H](CO)[C@@H](O)[C@H](O)[C@H]2O[C@H]2O[C@H](CO)[C@@H](O)[C@H](O)[C@H]2O)[C@H](O)[C@@H](O)[C@@H]1O` [kojibiosylglucoside, α-D-glucosyl-(1→2)-α-D-glucosyl-(1,1)-α-D-glucoside], for which the “Acute toxicity: death of mice” value was “no mouse died”.
